Results taken from ChEMBL document CHEMBL4052781, “Discovery and structure-activity relationship of auriculatone: A potent hepatoprotective agent against acetaminophen-induced liver injury” (Bioorg Med Chem Lett, 2017).
Active and inactive are the calls of the source. The rule behind the calls is not given here.

What was measured:
L02 [1] = assay: Hepatoprotective activity against APAP-induced cell injury in human HL-7702 cells assessed as increase in survival rate at 10 uM pre-incubated for 24 hrs before APAP addition and measured 6 hrs post APAP challenge by MTT assay; assay type: functional, cell-based
L02 [2] = assay: Hepatoprotective activity against APAP-induced cell injury in human HL-7702 cells assessed as survival rate at 10 uM pre-incubated for 24 hrs before APAP addition and measured 6 hrs post APAP challenge by MTT assay (reference value: 59.13%); assay type: functional; details: read-out: Survival
L02 [3] = assay: Hepatoprotective activity against APAP-induced cell injury in human HL-7702 cells assessed as increase in survival rate at 0.1 uM pre-incubated for 24 hrs before APAP addition and measured 6 hrs post APAP challenge by MTT assay; assay type: functional, cell-based
L02 [4] = assay: Effect on APAP-induced depletion of GSH levels in human HL-7702 cells assessed as GSH level at 10 uM by colorimetric method (reference value: 59.68 +/- 1.16 au); assay type: functional
L02 [5] = assay: Hepatoprotective activity against APAP-induced cell injury in human HL-7702 cells assessed as survival rate at 10 uM pre-incubated for 24 hrs before APAP addition and measured 6 hrs post APAP challenge by MTT assay (reference value: 60.49 +/- 0.28%); assay type: functional; details: read-out: Survival
L02 [6] = assay: Hepatoprotective activity against APAP-induced cell injury in human HL-7702 cells assessed as increase in survival rate at 1 uM pre-incubated for 24 hrs before APAP addition and measured 6 hrs post APAP challenge by MTT assay; assay type: functional, cell-based
Cytochrome P450 3A4 = Cytochrome P450 3A4 (Homo sapiens, UniProt P08684); assay: Inhibition of CYP3A4 in human HL-7702 cells assessed as reduction in metabolic conversion of nifedipine to dehydronifedipine by LC-MS/MS method; assay type: ADME, cell-based
CYP3A4 = CYP3A4 (Homo sapiens, UniProt P08684); assay: Inhibition of CYP3A4 in human HL-7702 cells assessed as assessed as remaining enzyme activity by measuring reduction in metabolic conversion of nifedipine to dehydronifedipine at 10 uM by LC-MS/MS method; assay type: ADME, cell-based; details: probe nifedipine, read-out: Activity
L02 [7] = assay: Effect on APAP-induced depletion of GSH levels in human HL-7702 cells assessed as GSH level at 1 uM by colorimetric method (reference value: 59.68 +/- 1.16 au); assay type: functional
L02 [8] = assay: Effect on APAP-induced depletion of GSH levels in human HL-7702 cells assessed as GSH level at 0.1 uM by colorimetric method (reference value: 59.68 +/- 1.16 au); assay type: functional
L02 [9] = assay: Hepatoprotective activity against APAP-induced cell injury in human HL-7702 cells assessed as survival rate at 0.625 uM pre-incubated for 24 hrs before APAP addition and measured 6 hrs post APAP challenge by MTT assay (reference value: 60.49 +/- 0.28%); assay type: functional; details: read-out: Survival
L02 [10] = assay: Hepatoprotective activity against APAP-induced cell injury in human HL-7702 cells assessed as survival rate at 1.25 uM pre-incubated for 24 hrs before APAP addition and measured 6 hrs post APAP challenge by MTT assay (reference value: 60.49 +/- 0.28%); assay type: functional; details: read-out: Survival
L02 [11] = assay: Hepatoprotective activity against APAP-induced cell injury in human HL-7702 cells assessed as survival rate at 2.5 uM pre-incubated for 24 hrs before APAP addition and measured 6 hrs post APAP challenge by MTT assay (reference value: 60.49 +/- 0.28%); assay type: functional; details: read-out: Survival
L02 [12] = assay: Hepatoprotective activity against APAP-induced cell injury in human HL-7702 cells assessed as survival rate at 5 uM pre-incubated for 24 hrs before APAP addition and measured 6 hrs post APAP challenge by MTT assay (reference value: 60.49 +/- 0.28%); assay type: functional; details: read-out: Survival

Sequence of Cytochrome P450 3A4 (P08684 whole entry): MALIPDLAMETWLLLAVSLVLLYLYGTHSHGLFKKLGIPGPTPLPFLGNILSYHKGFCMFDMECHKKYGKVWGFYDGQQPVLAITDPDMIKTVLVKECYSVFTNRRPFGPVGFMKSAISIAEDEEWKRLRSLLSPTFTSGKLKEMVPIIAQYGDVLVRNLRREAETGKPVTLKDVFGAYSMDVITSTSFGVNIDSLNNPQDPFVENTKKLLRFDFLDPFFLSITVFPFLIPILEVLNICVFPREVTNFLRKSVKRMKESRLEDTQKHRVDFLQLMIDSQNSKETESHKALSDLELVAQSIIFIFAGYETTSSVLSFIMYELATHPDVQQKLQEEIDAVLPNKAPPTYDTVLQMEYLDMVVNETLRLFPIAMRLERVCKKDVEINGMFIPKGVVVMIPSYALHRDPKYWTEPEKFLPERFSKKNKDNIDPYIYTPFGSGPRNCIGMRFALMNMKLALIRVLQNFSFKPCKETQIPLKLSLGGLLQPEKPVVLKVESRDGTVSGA
Sequence of CYP3A4 (P08684 whole entry): as above

Structure (SMILES) | Activity (L02 [1]) | viability at 10 µM (L02 [2]) | Activity (L02 [3]) | further results
CC1(C)CC[C@]2(C(=O)O)CC[C@]3(C)C(=CC=C4[C@@]5(C)CC[C@H](O)C(C)(C)[C@@H]5CC[C@]43C)[C@@H]2C1 | Active | – | – | –
CC1(C)CC[C@@H]2C(=O)C[C@]3(C)C(=CC[C@@H]4[C@@]5(C)CC[C@H](O)C(C)(C)[C@@H]5CC[C@]43C)[C@@H]2C1 | – | 76 to 80% | – | –
CC1(C)CC[C@]2(C(=O)O)CC[C@]3(C)C(=CC[C@@H]4[C@@]5(C)CCC(=O)C(C)(C)[C@@H]5CC[C@]43C)[C@@H]2C1 | Active | – | – | –
CC1(C)CC[C@]2(C(=O)O)CC[C@]3(C)C(=CC(=O)[C@@H]4[C@@]5(C)CC[C@H](O)C(C)(C)[C@@H]5CC[C@]43C)[C@@H]2C1 | Active | – | – | –
CC(=O)O[C@H]1CC[C@]2(C)[C@H]3CC=C4[C@@H]5CC(C)(C)CC[C@H]5C(=O)C[C@@]4(C)[C@]3(C)CC[C@H]2C1(C)C | Active | 67.1% | inactive | –
CC1(C)CC[C@]2(C(=O)O)CC[C@]3(C)C(=CC[C@@H]4[C@@]5(C)CC[C@H](O)C(C)(C)[C@@H]5CC[C@]43C)[C@@H]2C1 [OLEANOLIC_ACID] | – | 68.5% | – | –
CC1(C)CC[C@H]2[C@@H](O)C[C@]3(C)C(=CC[C@@H]4[C@@]5(C)CC[C@H](O)C(C)(C)[C@@H]5CC[C@]43C)[C@@H]2C1 | Active | 62.9% | inactive | –
CC1(C)CC[C@@]23CC[C@@]4(C)[C@]5(C)CC[C@H]6C(C)(C)[C@@H](O)CC[C@]6(C)C5=CC(=O)[C@]4(OC2=O)[C@@H]3C1 | Active | – | – | –
CC1(C)CC[C@H]2[C@H](O)C[C@]3(C)C(=CC[C@@H]4[C@@]5(C)CC[C@H](O)C(C)(C)[C@@H]5CC[C@]43C)[C@@H]2C1 | Active | 65.5% | inactive | –
CC1(C)CC[C@H]2C(=O)C[C@]3(C)[C@@]4(O[C@@H]4C[C@@H]4[C@@]5(C)CC[C@H](O)C(C)(C)[C@@H]5CC[C@]43C)[C@@H]2C1 | Active | 65.7% | inactive | –
CC(=O)N[C@@H](CS)C(=O)O [ACETYLCYSTEINE] | Active | – | – | Activity (L02 [4]): 102.49 a.u.; viability at 10 µM (L02 [5]): 82.3%
CC1(C)CC[C@H]2C(=O)C[C@]3(C)C(=CC[C@@H]4[C@@]5(C)CC[C@H](O)C(C)(C)[C@@H]5CC[C@]43C)[C@@H]2C1 | – | 78.3 to 80% | inactive | Activity (L02 [6]): Active; Activity (L02 [4]): 54.37 a.u.; Activity (Cytochrome P450 3A4): Dose-dependent effect; activity at 10 µM (CYP3A4): 66%; Activity (L02 [7]): 55.62 a.u.; Activity (L02 [8]): 55.93 a.u.; viability at 0.625 µM (L02 [9]): 66.8%; viability at 1.25 µM (L02 [10]): 68.6%; viability at 2.5 µM (L02 [11]): 74.5%; viability at 5 µM (L02 [12]): 76%; viability at 10 µM (L02 [5]): 80.1%
CC1(C)CC[C@]2(CO)CC[C@]3(C)C(=CC[C@@H]4[C@@]5(C)CC[C@H](O)C(C)(C)[C@@H]5CC[C@]43C)[C@@H]2C1 | Active | – | – | –
CC1(C)CC[C@]2(C(=O)O)[C@H](O)C[C@]3(C)C(=CC[C@@H]4[C@@]5(C)CC[C@H](O)C(C)(C)[C@@H]5CC[C@]43C)[C@@H]2C1 | Active | – | – | –
CC1(C)CC[C@H]2CC[C@]3(C)C(=CC[C@@H]4[C@@]5(C)CC[C@H](O)C(C)(C)[C@@H]5CC[C@]43C)[C@@H]2C1 | Active | 71.6% | inactive | Activity (L02 [6]): Active
CC1(C)CC[C@H]2C(=O)C[C@]3(C)C(=CC[C@@H]4[C@@]5(C)CCC(=O)C(C)(C)[C@@H]5CC[C@]43C)[C@@H]2C1 | Active | 71.2% | inactive | Activity (L02 [6]): Active
CC1(C)CC[C@]2(C(=O)O)CC[C@]3(C)C(=C2C1)C=C[C@@H]1[C@@]2(C)CC[C@H](O)C(C)(C)[C@@H]2CC[C@]13C | Active | – | – | –
